For assay [1], the system named is UV-damaged mouse skin versus healthy mouse skin. As to the kind of experiment: In vivo skin fluorescence in healthy nude mice and nude mice with UV-damaged skin. Conditions: nude mice. As for the experimental part: An experiment was carried out to assess the potential for compound 6 to show selective accumulation in UV-damaged skin. For the assessment, skin fluorescence after application of the compound was measured in vivo in healthy mouse skin and in UV-damaged mouse skin. A nude mice model with UV-damaged skin (actinic damage) was established as described by K. Togsverd-Bo et al., Exp. Dermatol. 2012, 21, 260-264.
Equimolar amounts of compound 2 (1-(isopropyl carboxy)ethyl 5-amino-4-oxopentanoate hydrochloride prepared according to Example 2) and compound 5 (3-carboxypropyl 5 amino-4-oxopentanoate hydrochloride prepared according to Example 5) were formulated as a cream in Unguentum Merck: compound 2: 16%, 160 mg/g and compound 5: 14%, 140 mg/g, respectively.
One group of healthy nude mice (10 mice, control group) and one group of nude mice with UV-damaged skin (10 mice) were included in the experiment. About 125 μl of cream formulation was applied onto the back of each mouse. Prior to cream application, the dorsal skin of each mouse was tape-stripped five times to enhance penetration of the compound: adhesive film (Scotch tape, 3M) was pressed onto the skin of the application area, the tape strip was removed with one quick movement and a new tape strip was used. The mice were kept in the dark for 3 hours prior to skin fluorescence measurement to avoid photobleaching. Skin fluorescence was assessed as described in Example 17 and the mean amount of skin fluorescence for each group of mice was calculated.
The ratio of skin fluorescence [a.u] in UV-damaged mouse skin to skin fluorescence [a.u.] in healthy mouse skin was determined.

The subject of assay [2] is skin of healthy nude mice. As to the kind of experiment: In vivo skin fluorescence study in healthy nude mice. Conditions: cream in Unguentum Merck, equimolar (16-19%), about 100 μl on back, 6 hours in the dark, excitation 365 and 405 nm, mean of 5 mice. How it is done: A study was carried out to assess the potential of the compounds of the invention as precursors for photosensitisers for skin application. As such, the compounds of the invention need to be able to penetrate the skin, to be taken up by the cells in the skin and to be converted to photosensitisers. The result of this process can be visualized by exposing the skin to light which excites the photosensitiser molecules and to determine the amount of energy which is released in the form of fluorescence when the excited photosensitiser molecules relax to an energetically lower state.
Compounds 2, 4 and 7 above were formulated as creams in Unguentum Merck. The compounds were tested in equimolar amounts:
3 groups of mice (5 mice/group, each mouse of one group receiving the same cream formulation) were included in the experiment. About 100 μl of cream formulation was applied onto the back of one mouse. The mice were kept in the dark for 6 hours prior to skin fluorescence measurement to avoid photobleaching. For assessment of skin fluorescence, a fluorescence camera (Medeikonos PDD/PDT, Medeikonos AB, Gothenburg, Sweden) was used and images of the back of each mouse were taken. Excitation was carried out at wavelengths of 365 and 405 nm and 2 s illumination time. Each image was calibrated to a fluorescence standard (Uranyl Standard, J&M, Analytische Mess- and Regeltechnik GmbH, Hamburg, Germany) and adjusted for background fluorescence. The mean amount of skin fluorescence in each image was calculated by means of image analyzer-software (MatLab 7.2.0.232, Math-Works, Natick, Mass., USA) and the mean amount of skin fluorescence for each group of mice (5 mice/compound) was calculated.

Counter-ions that a name gives are not always drawn.

Turning to `CC(C)OC(=O)C(C)OC(=O)CCC(=O)CN` (stereo not shown) [Compound 2, 1-(isopropylcarboxy)ethyl 5-amino-4-oxopentanoate hydrochloride], the “Ratio of skin fluorescence in UV-damaged mouse skin to skin fluorescence in healthy mouse skin” value in assay [1] (equimolar creams (16% / 14%), about 125 μl, tape-stripped skin, 3 hours in the dark, 10 mice per group) is listed as 1.14. The “Selectivity for UV-damaged skin” value in assay [1] (equimolar creams, 3 hours) was “some selectivity for UV-damaged skin”. In assay [2], this molecule displayed a Skin fluorescence of 31557 a.u.

In turn, `NCC(=O)CCC(=O)OCc1ccc(C(=O)O)cc1` [Compound 7, (4-carboxyphenyl)methyl 5-amino-4-oxopentanoate hydrobromide] displayed a Skin fluorescence in assay [2] of 2995 a.u.

The values are drawn from patent US9249086B2, “Carboxylic acid ALA esters” (Photocure ASA, priority 2012, dated 2016).
